The source of these data is ChEMBL document CHEMBL5331124, “Degradation of Hexokinase 2 Blocks Glycolysis and Induces GSDME-Dependent Pyroptosis to Amplify Immunogenic Cell Death for Breast Cancer Therapy” (J Med Chem, 2023).

The IC50 is the concentration that gives 50% inhibition.

Each structure is given as a SMILES string. Active and inactive are the calls of the source. No cut-off for these calls is given here.

One series relates to PANC-1. As to the kind of experiment: Antiproliferative activity against human PANC-1 cells assessed as cell growth inhibition measured for 72 hrs by MTT assay. Conditions: PANC-1, 72 h. It is filed as functional, cell-based. In general terms: Tetrazolium assays rely on reduction of a dye to a coloured formazan, in cell work by metabolically active cells.
The subject of a further series is HGC-27. In words: Potency index, ratio of IC50 for lonidamine to test compound IC50 for human HGC-27 cells assessed as cell growth inhibition measured for 72 hrs by MTT assay. It counts as functional.
Another series has as its system MDA-MB-231. As to the kind of experiment: Cytotoxicity against human MDA-MB-231 cells assessed as inhibition of cell growth at 1 to 100 uM incubated for 48 hrs by CCK-8 assay. Conditions: dose 1-100 µM. It is filed as functional, cell-based.
Series [1] can be described thus: Cytotoxicity against human HUVEC-T1 cell assessed as inhibition of cell growth at 1 to 100 uM incubated for 48 hrs by CCK-8 assay. It is filed as toxicity, cell-based. As to conditions: dose 1-100 µM.
Series [2] has as its system 4T1. As to the kind of experiment: Induction of mitochondrial damage in mouse 4T1 cells assessed as increase in ROS generation at 20 uM measured for 36 hrs by Hoechst 33342 staining based confocal fluorescence microscopic analysis. It is filed as functional, cell-based.
Series [3] addresses T1, Hexokinase-1 (Homo sapiens) (UniProt P19367).
T1 sequence (whole entry): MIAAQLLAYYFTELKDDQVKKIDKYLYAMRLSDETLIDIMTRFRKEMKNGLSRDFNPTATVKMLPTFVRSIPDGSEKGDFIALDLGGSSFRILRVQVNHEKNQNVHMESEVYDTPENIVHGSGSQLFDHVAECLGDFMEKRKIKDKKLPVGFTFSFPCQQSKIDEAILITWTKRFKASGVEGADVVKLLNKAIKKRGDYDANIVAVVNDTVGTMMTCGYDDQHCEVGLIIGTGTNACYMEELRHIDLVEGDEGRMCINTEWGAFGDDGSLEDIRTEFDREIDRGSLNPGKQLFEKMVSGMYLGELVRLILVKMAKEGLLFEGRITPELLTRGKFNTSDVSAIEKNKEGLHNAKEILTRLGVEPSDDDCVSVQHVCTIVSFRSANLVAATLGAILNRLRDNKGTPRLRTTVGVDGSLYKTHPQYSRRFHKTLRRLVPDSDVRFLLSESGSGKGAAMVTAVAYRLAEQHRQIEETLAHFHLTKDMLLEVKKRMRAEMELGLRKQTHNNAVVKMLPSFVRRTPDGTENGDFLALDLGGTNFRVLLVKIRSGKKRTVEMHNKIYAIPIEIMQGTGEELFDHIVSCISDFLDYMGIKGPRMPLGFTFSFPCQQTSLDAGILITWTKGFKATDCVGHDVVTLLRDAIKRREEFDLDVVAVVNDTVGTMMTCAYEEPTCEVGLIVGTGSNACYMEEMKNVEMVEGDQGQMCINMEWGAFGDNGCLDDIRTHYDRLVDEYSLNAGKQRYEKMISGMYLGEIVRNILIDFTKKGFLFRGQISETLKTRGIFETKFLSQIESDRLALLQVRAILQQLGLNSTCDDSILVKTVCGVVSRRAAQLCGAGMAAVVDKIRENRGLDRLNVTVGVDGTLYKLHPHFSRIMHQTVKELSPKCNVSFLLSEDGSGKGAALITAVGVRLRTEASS
As to the kind of experiment: Induction of HK1 degradation in human MDA-MB-231 cells at 20 uM measured for 36 hrs by Western blot analysis. It counts as cell-based. On the technique in general: Immunoblotting shows a protein as a band on a membrane.

Series [4] relates to 4T1. As to the kind of experiment: Induction of pyroptosis in mouse 4T1 cells assessed as reduction in full length caspase-3 level at 20 uM incubated for 36 hrs. It counts as functional, cell-based.
Series [5] has as its system 4T1. As to the kind of experiment: Induction of pyroptosis in mouse 4T1 cells assessed as late apoptotic cells at 20 uM incubated for 36 hrs by annexin V-FITC staining based flow cytometry analysis (Rvb =13.6 %). It counts as functional. In general terms: A flow cytometer gives signals particle by particle.
In series [6] the test system is 4T1. As to the kind of experiment: Antitumor immunity against mouse 4T1 cells implanted in BALB/c mouse model assessed as increase in HMGB1 release in cell supernatant at 20 uM measured for 36 hrs by ELISA analysis. It counts as functional, cell-based.
Series [7] has as its system 4T1. As to the kind of experiment: Antitumor immunity against mouse 4T1 cells implanted in BALB/c mouse model assessed as increase in ATP release in cell supernatant at 20 uM measured for 36 hrs by ELISA analysis. It counts as functional, cell-based.
A short description of series [8]: Toxicity in BALB/c mouse implanted with mouse 4T1 cells assessed as pathological changes in liver at 50 mg/kg, ip measured after 25 days by Hematoxylin -eosin staining based analysis. Conditions: in vivo, 600 h, time 25 day. It is filed as organism-based.
Series [9] in a line: Toxicity in BALB/c mouse implanted with mouse 4T1 cells assessed as effect on hematocrit level at 50 mg/kg, ip measured after 25 days by routine blood test. It counts as organism-based. As to conditions: in vivo, 600 h, time 25 day.
Series [10] in a line: Toxicity in BALB/c mouse implanted with mouse 4T1 cells assessed as effect on hemoglobin level at 50 mg/kg, ip measured after 25 days by routine blood test. It is filed as organism-based. Conditions: in vivo, 600 h, time 25 day.
In series [11] the test system is 4T1. In words: Antitumor activity against mouse 4T1 cells implanted in BALB/c mouse model assessed as nucleus damage at 50 mg/kg, ip measured after 25 days by TUNEL staining based analysis. It is filed as functional, organism-based. Conditions: time 25.0 day.
Series [12] is described as follows: Toxicity in BALB/c nude mouse xenografted with human MDA-MB-231 cells assessed as effect on platelet count at 50 mg/kg, ip measured after 30 days by routine blood test. Conditions: in vivo, 720 h, time 30 day. It counts as organism-based.
A short description of series [13]: Toxicity in BALB/c mouse implanted with mouse 4T1 cells assessed as change in body weight at 50 mg/kg, ip measured after 23 days in presence of cisplatin. It counts as organism-based. Conditions: in vivo, 552 h, time 23 day.
Series [14] in a line: Toxicity in BALB/c mouse implanted with mouse 4T1 cells assessed as effect on hemoglobin level at 50 mg/kg, ip measured after 25 days in presence of cisplatin by routine blood test. It is filed as organism-based. Conditions: in vivo, 600 h, time 25 day.
A short description of series [15]: Toxicity in BALB/c mouse implanted with mouse 4T1 cells assessed as effect on mean corpuscular hemoglobin at 50 mg/kg, ip measured after 25 days in presence of cisplatin by routine blood test. It counts as organism-based. Conditions: in vivo, 600 h, time 25 day.
Series [16] can be described thus: Toxicity in BALB/c mouse implanted with mouse 4T1 cells assessed as pathological changes in heart at 50 mg/kg, ip measured after 25 days in presence of cisplatin by Hematoxylin -eosin staining based analysis. It is filed as organism-based. Conditions: in vivo, 600 h, time 25 day.

With `O=C1CCC(N2C(=O)c3cccc(NCCCCNC(=O)c4nn(Cc5ccc(Cl)cc5Cl)c5ccccc45)c3C2=O)C(=O)N1` (centres undefined), the half-inhibitory concentration (IC50) with PANC-1 was 31.5 µM. Besides, the “Ratio IC50” value with HGC-27 turned out to be 12.7. The result with MDA-MB-231, with 4T1 [2], in the series with 4T1 [4], with 4T1 [6], with 4T1 [7] and in the series on 4T1 [11] was Active. The Activity entry in series [1] is given as “Toxic”; in the series on 4T1 [5] it was 43%; in series [8] it was “Non-Toxic”; in series [9], “Non-Toxic”; in [10], “Non-Toxic”; in series [12], “Non-Toxic”. Besides, the Activity result in [13], in [14], in [15] and in [16] was “Non-Toxic” throughout. Also, in series [3], the result was inactive.
